Experimental data from the NIST ThermoML archive (doi:10.1016/j.jct.2012.04.005).
Values joined by “and” are separate entries in the source; they are usually repeats but may differ in a detail not shown here. Equal values may be shown once. ± gives the expanded uncertainty stated by the source.

Settings: isochoric method

CCOCC [diethyl ether]
Liquid
Settings | mass density
416.1 K | 534.6 ± 0.6 kg/m3
425.19 K | 517.3 ± 0.5 kg/m3
437.14 K | 485.2 ± 0.5 kg/m3
450.6 K | 441.5 ± 0.5 kg/m3
450.77 K | 440.8 ± 0.5 kg/m3
459.61 K | 394.8 ± 0.5 kg/m3
464.79 K | 348.2 ± 1 kg/m3
466.12 K | 212.6 ± 1.8 kg/m3
466.47 K | 310.8 ± 2.9 kg/m3
466.66 K | 233.7 ± 4.3 kg/m3
466.75 K | 296.7 ± 6.1 kg/m3
466.8 K | 288.3 ± 16 kg/m3
466.81 K | 278.7 ± 12 kg/m3
466.82 K | 275.7 ± 10 kg/m3
466.83 K | 255 ± 5.1 kg/m3 and 260.7 ± 6.1 kg/m3
466.85 K | 261.2 ± 5.9 kg/m3

Settings | mass density [kg/m3]
416.3 K, 1625 kPa, Liquid | 534.6 ± 0.6
416.83 K, 1747 kPa, Liquid | 534.6 ± 0.6
416.93 K, 1693 kPa, Liquid | 534.6 ± 0.6
417.26 K, 1783 kPa, Liquid | 534.6 ± 0.6
418.11 K, 2014 kPa, Liquid | 534.6 ± 0.6
420.91 K, 2770 kPa, Liquid | 534.6 ± 0.6
421.09 K, 2823 kPa, Liquid | 534.6 ± 0.6
422.05 K, 3084 kPa, Liquid | 534.6 ± 0.6
425.27 K, 1926 kPa, Liquid | 517.3 ± 0.5
425.69 K, 4074 kPa, Liquid | 534.6 ± 0.6
425.75 K, 2146 kPa, Liquid | 517.3 ± 0.5
425.83 K, 2193 kPa, Liquid | 517.3 ± 0.5
425.96 K, 4149 kPa, Liquid | 534.6 ± 0.6
426.06 K, 2271 kPa, Liquid | 517.3 ± 0.5
426.78 K, 2602 kPa, Liquid | 517.3 ± 0.5
427.43 K, 4552 kPa, Liquid | 534.6 ± 0.6
432.78 K, 5984 kPa, Liquid | 534.6 ± 0.6
432.99 K, 6050 kPa, Liquid | 534.6 ± 0.6
433.93 K, 6306 kPa, Liquid | 534.6 ± 0.6
437.48 K, 2381 kPa, Liquid | 485.2 ± 0.5
437.61 K, 2392 kPa, Liquid | 485.2 ± 0.5
437.68 K, 2382 kPa, Liquid | 485.2 ± 0.5
437.79 K, 2430 kPa, Liquid | 485.2 ± 0.5
438.72 K, 2616 kPa, Liquid | 485.2 ± 0.5
438.85 K, 7649 kPa, Liquid | 534.6 ± 0.6
439.14 K, 7729 kPa, Liquid | 534.6 ± 0.6
439.97 K, 7955 kPa, Liquid | 534.6 ± 0.6
445.62 K, 3997 kPa, Liquid | 485.2 ± 1.2
445.85 K, 4046 kPa, Liquid | 485.2 ± 2.7
446.57 K, 4191 kPa, Liquid | 485.2 ± 0.5
448.81 K, 10345 kPa, Liquid | 534.6 ± 0.6
449.04 K, 10408 kPa, Liquid | 534.6 ± 0.6
449.96 K, 10662 kPa, Liquid | 534.6 ± 0.6
450.97 K, 2954 kPa, Liquid | 441.5 ± 0.5
450.98 K, 2969 kPa, Liquid | 440.8 ± 0.5
451.08 K, 2998 kPa, Liquid | 440.8 ± 0.5
451.17 K, 3017 kPa, Liquid | 440.8 ± 0.5
451.49 K, 3039 kPa, Liquid | 441.5 ± 0.5
451.69 K, 3088 kPa, Liquid | 441.5 ± 0.5
452.31 K, 3185 kPa, Liquid | 440.8 ± 0.6
452.82 K, 3254 kPa, Liquid | 441.5 ± 0.6
459.55 K, 6842 kPa, Liquid | 485.2 ± 0.5
459.83 K, 6900 kPa, Liquid | 485.2 ± 0.5
460.03 K, 3345 kPa, Liquid | 394.8 ± 0.5
460.23 K, 3396 kPa, Liquid | 394.8 ± 1
460.36 K, 3392 kPa, Liquid | 394.8 ± 1.2
460.5 K, 13585 kPa, Liquid | 534.6 ± 0.6
460.64 K, 7064 kPa, Liquid | 485.2 ± 0.5
460.64 K, 13628 kPa, Liquid | 534.6 ± 0.6
461.45 K, 3512 kPa, Liquid | 394.8 ± 0.7
461.55 K, 13877 kPa, Liquid | 534.6 ± 0.6
461.58 K, 4562 kPa, Liquid | 441.5 ± 0.5
461.85 K, 4602 kPa, Liquid | 441.5 ± 0.5
461.98 K, 4645 kPa, Liquid | 440.8 ± 0.5
462.66 K, 4726 kPa, Liquid | 441.5 ± 0.5
463.06 K, 4812 kPa, Liquid | 440.8 ± 0.5
465.09 K, 3597 kPa, Liquid | 348.2 ± 1.3
465.58 K, 3635 kPa, Liquid | 348.2 ± 1.2
465.68 K, 3649 kPa, Liquid | 348.2 ± 1.5
465.84 K, 3662 kPa, Liquid | 348.2 ± 1.9
466.13 K, 3555 kPa, Gas | 212.6 ± 4.8
466.67 K, 3560 kPa, Gas | 233.7 ± 4.8
466.68 K, 3578 kPa, Gas | 212.6 ± 5
466.76 K, 3609 kPa, Liquid | 296.7 ± 2.8
466.85 K, 3565 kPa, Gas | 260.7 ± 3.4
466.87 K, 3577 kPa, Liquid | 275.7 ± 2.6
466.88 K, 3561 kPa, Liquid | 261.2 ± 2.5
466.88 K, 3641 kPa, Liquid | 310.8 ± 2.3
466.89 K, 3586 kPa, Gas | 255 ± 2.2
467.09 K, 3625 kPa, Liquid | 278.8 ± 2
467.09 K, 3678 kPa, Liquid | 310.8 ± 3
467.29 K, 3582 kPa, Liquid | 261.2 ± 2.9
467.29 K, 3591 kPa, Gas | 233.7 ± 6.2
467.29 K, 3602 kPa, Liquid | 275.7 ± 2.9
467.29 K, 3605 kPa, Gas | 255 ± 5.5
467.39 K, 3612 kPa, Gas | 255 ± 7.1
467.47 K, 3597 kPa, Gas | 233.7 ± 4.6
467.49 K, 3648 kPa, Liquid | 296.7 ± 2.6
467.5 K, 3591 kPa, Liquid | 261.2 ± 2.7
467.57 K, 3699 kPa, Liquid | 310.8 ± 1.9
467.62 K, 3606 kPa, Gas | 260.7 ± 10
467.69 K, 3637 kPa, Liquid | 288.3 ± 1.8
467.96 K, 3736 kPa, Liquid | 310.8 ± 1.9
468.29 K, 3629 kPa, Gas | 233.7 ± 5
468.29 K, 3662 kPa, Gas | 255 ± 2.4
468.39 K, 3632 kPa, Liquid | 261.2 ± 2.1
468.52 K, 3635 kPa, Gas | 212.6 ± 3.4
468.69 K, 3669 kPa, Gas | 260.7 ± 5.4
468.69 K, 3721 kPa, Liquid | 278.8 ± 1.9
468.69 K, 3780 kPa, Liquid | 310.8 ± 2.3
468.83 K, 3719 kPa, Liquid | 278.8 ± 1.5
468.94 K, 3681 kPa, Liquid | 275.7 ± 1.4
469.49 K, 3681 kPa, Gas | 212.6 ± 7.7
469.89 K, 3738 kPa, Liquid | 275.7 ± 0.4
469.89 K, 3776 kPa, Liquid | 278.8 ± 1.1
470.22 K, 4019 kPa, Liquid | 348.2 ± 1.4
470.71 K, 16287 kPa, Liquid | 534.6 ± 0.6
470.75 K, 3929 kPa, Liquid | 296.7 ± 1.3
471.09 K, 16390 kPa, Liquid | 534.6 ± 0.6
471.25 K, 9234 kPa, Liquid | 485.2 ± 0.5
471.29 K, 4110 kPa, Liquid | 348.2 ± 1.7
471.59 K, 9306 kPa, Liquid | 485.2 ± 0.5
471.69 K, 16551 kPa, Liquid | 534.6 ± 0.6
472.29 K, 9719 kPa, Liquid | 485.2 ± 0.5
472.58 K, 4780 kPa, Liquid | 394.8 ± 0.7
473.16 K, 3968 kPa, Liquid | 288.3 ± 0.5
473.49 K, 4095 kPa, Liquid | 296.7 ± 1.1
473.49 K, 4886 kPa, Liquid | 394.8 ± 0.8
474.18 K, 4037 kPa, Liquid | 288.3 ± 0.8
477.4 K, 7063 kPa, Liquid | 440.8 ± 0.6
478.46 K, 7226 kPa, Liquid | 440.8 ± 0.5
478.97 K, 10850 kPa, Liquid | 485.2 ± 0.6
479.25 K, 10911 kPa, Liquid | 485.2 ± 0.6
479.29 K, 4255 kPa, Liquid | 261.2 ± 1.1
479.79 K, 4580 kPa, Liquid | 310.8 ± 0.7
480.04 K, 11078 kPa, Liquid | 485.2 ± 0.5
480.08 K, 4398 kPa, Liquid | 288.3 ± 0.5
480.2 K, 11129 kPa, Liquid | 485.2 ± 0.5
480.44 K, 4322 kPa, Liquid | 296.7 ± 1.3
480.44 K, 11179 kPa, Liquid | 485.2 ± 0.5
480.83 K, 4665 kPa, Liquid | 310.8 ± 0.7
481.03 K, 4460 kPa, Liquid | 288.3 ± 0.6
481.43 K, 11386 kPa, Liquid | 485.2 ± 0.5
487.13 K, 6550 kPa, Liquid | 394.8 ± 0.5
488.12 K, 6673 kPa, Liquid | 394.8 ± 0.5
490.82 K, 9157 kPa, Liquid | 440.8 ± 0.5
491.84 K, 9329 kPa, Liquid | 440.8 ± 0.5
492.58 K, 13642 kPa, Liquid | 485.2 ± 0.5
492.82 K, 13695 kPa, Liquid | 485.2 ± 0.5
493.6 K, 13857 kPa, Liquid | 485.2 ± 0.5
499.04 K, 6021 kPa, Liquid | 310.8 ± 0.4
499.15 K, 8032 kPa, Liquid | 394.8 ± 0.5
500.02 K, 6096 kPa, Liquid | 310.8 ± 0.5
500.21 K, 8166 kPa, Liquid | 394.8 ± 0.5
504.02 K, 15987 kPa, Liquid | 485.2 ± 0.5
504.28 K, 16044 kPa, Liquid | 485.2 ± 0.5
505.05 K, 16203 kPa, Liquid | 485.2 ± 0.5
517.61 K, 10294 kPa, Liquid | 394.8 ± 0.5
518.47 K, 10403 kPa, Liquid | 394.8 ± 0.5
533.2 K, 12288 kPa, Liquid | 394.8 ± 0.4
534.36 K, 12440 kPa, Liquid | 394.8 ± 0.4
554.38 K, 14968 kPa, Liquid | 394.8 ± 0.4
555.38 K, 15098 kPa, Liquid | 394.8 ± 0.4
574.32 K, 17455 kPa, Liquid | 394.8 ± 0.5
575.32 K, 17595 kPa, Liquid | 394.8 ± 0.5
